What was measured:
[1] = test system: IL-17A-induced G-CSF production in human normal keratinocyte (NHK); experiment: NHK Assay: IL-17A-induced G-CSF production in human normal keratinocytes; format: cell-based; settings: Homo sapiens, Keratinocyte, 24 h, adult normal human keratinocytes, IL-17A 5 ng/mL, simple average if tested more than once
Outline: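 Adult normal human keratinocytes were seeded at 3000-4000 cells/well. Recombinant human IL-17A was pre-incubated 1 h at rt with titrated compound, then added to cells (final 5 ng/mL IL-17A, 0.2% DMSO, 5% FBS) for 24 h at 37° C. Supernatant G-CSF was measured by HTRF against a standard curve to give IC50.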

[2] = molecular target: IL-17A(FLAG-Tagged): IL-17RA(His-Tagged) (Homo sapiens, UniProt Q16552, K93Q); experiment: IL-17A(FLAG-Tagged): IL-17RA(His-Tagged) Binding Disruption Eu-HTRF Assay; settings: IL-17A/IL-17RA binding disruption, simple average if tested more than once
Outline: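 IC50 comes from a one-site competition fit of the HTRF 665/620 nm ratio. Compound dilutions (2-fold, 22 points) were held 1 h rt with FLAG-tagged IL-17A dimer, then His-tagged IL-17RA plus Eu-cryptate anti-FLAG and D2 anti-His antibodies were added for 2 h rt.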

UniProt Q16552, sequence (Q16552 with tags, fused parts or gaps K93Q): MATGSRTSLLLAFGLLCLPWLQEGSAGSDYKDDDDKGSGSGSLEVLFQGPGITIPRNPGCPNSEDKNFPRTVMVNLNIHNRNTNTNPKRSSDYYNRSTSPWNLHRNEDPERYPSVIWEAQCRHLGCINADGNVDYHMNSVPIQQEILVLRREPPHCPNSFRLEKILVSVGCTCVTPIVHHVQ

Compound	IC50 [2]	IC50 [1]
O=C(CCC(F)(F)F)N[C@@H](c1cnn2cc([C@@H](NC(=O)c3cnnn3CC3CC(F)(F)C3(F)F)C3CCC(F)(F)CC3)nc2c1)C1CC1 (stereo partly drawn) [Example 94, N—((S)-(7-((R)-Cyclopropyl(4,4,4-trifluorobutanamido)methyl)imidazo[1,2-b]pyridazin-2-yl)(4,4-difluorocyclohexyl)methyl)-1-((2,2,3,3-tetrafluorocyclobutyl)methyl)-1H-1,2,3-triazole-5-carboxamide]	110 nM	150 nM
O=C(CCC(F)(F)F)N[C@@H](c1cnn2cc([C@@H](NC(=O)c3cnn(CC4CC(F)(F)C4(F)F)n3)C3CCC(F)(F)CC3)nc2c1)C1CC1 (stereo partly drawn) [Example 95, N—((S)-(7-((R)-Cyclopropyl(4,4,4-trifluorobutanamido)methyl)imidazo[1,2-b]pyridazin-2-yl)(4,4-difluorocyclohexyl)methyl)-2-((2,2,3,3-tetrafluorocyclobutyl)methyl)-2H-1,2,3-triazole-4-carboxamide]	100 nM	260 nM
O=C(CCC(F)(F)F)N[C@@H](c1cnn2cc([C@@H](NC(=O)c3cn(CC4CC(F)(F)C4(F)F)nn3)C3CCC(F)(F)CC3)nc2c1)C1CC1 (stereo partly drawn) [Example 96, N—((S)-(7-((R)-Cyclopropyl(4,4,4-trifluorobutanamido)methyl)imidazo[1,2-b]pyridazin-2-yl)(4,4-difluorocyclohexyl)methyl)-1-((2,2,3,3-tetrafluorocyclobutyl)methyl)-1H-1,2,3-triazole-4-carboxamide]	370 nM	2200 nM
O=C(CCC(F)(F)F)N[C@@H](c1cnn2cc([C@@H](NC(=O)[C@H]3C[C@H]3F)C3CCC(F)(F)CC3)nc2c1)C1CC1 [Example 97, (1R,2R)—N—((S)-(7-((R)-Cyclopropyl(4,4,4-trifluorobutanamido)methyl)imidazo[1,2-b]pyridazin-2-yl)(4,4-difluorocyclohexyl)methyl)-2-fluorocyclopropane-1-carboxamide]	5400 nM	> 20000 nM
O=C(CCC(F)(F)F)N[C@@H](c1cnn2cc([C@@H](NC(=O)[C@H]3C[C@@H]3F)C3CCC(F)(F)CC3)nc2c1)C1CC1 [Example 98, (1R,2S)—N—((S)-(7-((R)-Cyclopropyl(4,4,4-trifluorobutanamido)methyl)imidazo[1,2-b]pyridazin-2-yl)(4,4-difluorocyclohexyl)methyl)-2-fluorocyclopropane-1-carboxamide]	770 nM	2300 nM
O=C(CCC(F)(F)F)N[C@@H](c1cnn2cc([C@@H](NC(=O)c3conc3CCF)C3CCC(F)(F)CC3)nc2c1)C1CC1 [Example 99, N—[(S)-[7-[(R)-Cyclopropyl-(4,4,4-trifluorobutanoylamino)methyl]imidazo[1,2-b]pyridazin-2-yl]-(4,4-difluorocyclohexyl)methyl]-3-(2-fluoroethyl)isoxazole-4-carboxamide]	57 nM	60 nM
CC1(c2nocc2C(=O)N[C@H](c2cn3ncc([C@H](NC(=O)CCC(F)(F)F)C4CC4)cc3n2)C2CCC(F)(F)CC2)COC1 [Example 100, N—[(S)-[7-[(R)-Cyclopropyl-(4,4,4-trifluorobutanoylamino)methyl]imidazo[1,2-b]pyridazin-2-yl]-(4,4-difluorocyclohexyl)methyl]-3-(3-methyloxetan-3-yl)isoxazole-4-carboxamide]	160 nM	85 nM
O=C(CCC(F)(F)F)N[C@@H](c1cnn2cc([C@@H](NC(=O)c3conc3C(F)(F)F)C3CCC(F)(F)CC3)nc2c1)C1CC1 [Example 101, N—[(S)-[7-[(R)-Cyclopropyl-(4,4,4-trifluorobutanoylamino)methyl]imidazo[1,2-b]pyridazin-2-yl]-(4,4-difluorocyclohexyl)methyl]-3-(trifluoromethyl)isoxazole-4-carboxamide]	39 nM	160 nM
COCc1nocc1C(=O)N[C@H](c1cn2ncc([C@H](NC(=O)CCC(F)(F)F)C3CC3)cc2n1)C1CCC(F)(F)CC1 [Example 102, N—[(S)-[7-[(R)-Cyclopropyl-(4,4,4-trifluorobutanoylamino)methyl]imidazo[1,2-b]pyridazin-2-yl]-(4,4-difluorocyclohexyl)methyl]-3-(methoxymethyl)isoxazole-4-carboxamide]	120 nM	270 nM

The next lines start with results.

IC50 [2]	Compound	IC50 [1]
110 nM	O=C(CCC(F)(F)F)N[C@@H](c1cnn2cc([C@@H](NC(=O)c3ncnn3C3CC3)C3CCC(F)(F)CC3)nc2c1)C1CC1 [Example 103, 1-Cyclopropyl-N—((S)-(7-((R)-cyclopropyl(4,4,4-trifluorobutanamido)methyl)imidazo[1,2-b]pyridazin-2-yl)(4,4-difluorocyclohexyl)methyl)-1H-1,2,4-triazole-5-carboxamide]	370 nM
90 nM	O=C(CCC(F)(F)F)N[C@@H](c1cnn2cc([C@@H](NC(=O)c3ccnn3C(F)(F)F)C3CCC(F)(F)CC3)nc2c1)C1CC1 [Example 104, N—((S)-(7-((R)-Cyclopropyl(4,4,4-trifluorobutanamido)methyl)imidazo[1,2-b]pyridazin-2-yl)(4,4-difluorocyclohexyl)methyl)-1-(trifluoromethyl)-1H-pyrazole-5-carboxamide]	550 nM
110 nM	O=C(CCC(F)(F)F)N[C@@H](c1cnn2cc([C@@H](NC(=O)c3cnnn3CCF)C3CCC(F)(F)CC3)nc2c1)C1CC1 [Example 105, N—((S)-(7-((R)-Cyclopropyl(4,4,4-trifluorobutanamido)methyl)imidazo[1,2-b]pyridazin-2-yl)(4,4-difluorocyclohexyl)methyl)-1-(2-fluoroethyl)-1H-1,2,3-triazole-5-carboxamide]	550 nM
130 nM	CCn1ncnc1C(=O)N[C@H](c1cn2ncc([C@H](NC(=O)CCC(F)(F)F)C3CC3)cc2n1)C1CCC(F)(F)CC1 [Example 106, N—((S)-(7-((R)-Cyclopropyl(4,4,4-trifluorobutanamido)methyl)imidazo[1,2-b]pyridazin-2-yl)(4,4-difluorocyclohexyl)methyl)-1-ethyl-1H-1,2,4-triazole-5-carboxamide]	830 nM
150 nM	O=C(CCC(F)(F)F)N[C@@H](c1cnn2cc([C@@H](NC(=O)c3cnn(CCF)n3)C3CCC(F)(F)CC3)nc2c1)C1CC1 [Example 107, N—((S)-(7-((R)-Cyclopropyl(4,4,4-trifluorobutanamido)methyl)imidazo[1,2-b]pyridazin-2-yl)(4,4-difluorocyclohexyl)methyl)-2-(2-fluoroethyl)-2H-1,2,3-triazole-4-carboxamide]	970 nM
910 nM	O=C(CCC(F)(F)F)N[C@@H](c1cnn2cc([C@@H](NC(=O)c3nnn(CC4CC4)c3C(F)(F)F)C3CCC(F)(F)CC3)nc2c1)C1CC1 [Example 108, N—((S)-(7-((R)-Cyclopropyl(4,4,4-trifluorobutanamido)methyl)imidazo[1,2-b]pyridazin-2-yl)(4,4-difluorocyclohexyl)methyl)-1-(cyclopropylmethyl)-5-(trifluoromethyl)-1H-1,2,3-triazole-4-carboxamide]	> 20000 nM
440 nM	O=C(CCC(F)(F)F)N[C@@H](c1cnn2cc([C@@H](NC(=O)c3nnn(CC(F)F)c3C(F)(F)F)C3CCC(F)(F)CC3)nc2c1)C1CC1 [Example 109, N—((S)-(7-((R)-Cyclopropyl(4,4,4-trifluorobutanamido)methyl)imidazo[1,2-b]pyridazin-2-yl)(4,4-difluorocyclohexyl)methyl)-1-(2,2-difluoroethyl)-5-(trifluoromethyl)-1H-1,2,3-triazole-4-carboxamide]	20000 nM
410 nM	O=C(CCC(F)(F)F)N[C@@H](c1cnn2cc([C@@H](NC(=O)c3nnn(C4CC4)c3C(F)F)C3CCC(F)(F)CC3)nc2c1)C1CC1 [Example 110, 1-Cyclopropyl-N—((S)-(7-((R)-cyclopropyl(4,4,4-trifluorobutanamido)methyl)imidazo[1,2-b]pyridazin-2-yl)(4,4-difluorocyclohexyl)methyl)-5-(difluoromethyl)-1H-1,2,3-triazole-4-carboxamide]	> 20000 nM
52 nM	CC(C)n1ncc(F)c1C(=O)N[C@H](c1cn2ncc([C@H](NC(=O)CCC(F)(F)F)C3CC3)cc2n1)C1CCC(F)(F)CC1 [Example 111, N—((S)-(7-((R)-Cyclopropyl(4,4,4-trifluorobutanamido)methyl)imidazo[1,2-b]pyridazin-2-yl)(4,4-difluorocyclohexyl)methyl)-4-fluoro-1-isopropyl-1H-pyrazole-5-carboxamide]	410 nM
120 nM	O=C(CCC(F)(F)F)N[C@@H](c1cnn2cc([C@@H](NC(=O)c3cnnn3CCCF)C3CCC(F)(F)CC3)nc2c1)C1CC1 [Example 112, N—((S)-(7-((R)-Cyclopropyl(4,4,4-trifluorobutanamido)methyl)imidazo[1,2-b]pyridazin-2-yl)(4,4-difluorocyclohexyl)methyl)-1-(3-fluoropropyl)-1H-1,2,3-triazole-5-carboxamide]	160 nM
430 nM	O=C(CCC(F)(F)F)N[C@@H](c1cnn2cc([C@@H](NC(=O)c3cnn(CCCF)n3)C3CCC(F)(F)CC3)nc2c1)C1CC1 [Example 113, N—((S)-(7-((R)-Cyclopropyl(4,4,4-trifluorobutanamido)methyl)imidazo[1,2-b]pyridazin-2-yl)(4,4-difluorocyclohexyl)methyl)-2-(3-fluoropropyl)-2H-1,2,3-triazole-4-carboxamide]	400 nM

— US11702422B2, “Imidazopyridazines as modulators of IL-17” (Janssen Pharmaceutica NV, priority 2020, dated 2023)
